Measurements from patent US20220040169A1, “Methods for the Administration of Certain VMAT2 Inhibitors” (Neurocrine Biosciences, Inc., priority 2019, published 2022).

Columns and labels:
[1] = Phase 2 and 3 controlled studies and long-term treatment in adults with tardive dyskinesia: Parkinson-like adverse events; type: in vivo, human
Description: In the Phase 2 and 3 controlled studies in adults with tardive dyskinesia (treatment up to 6 weeks), the incidence of Parkinson-like adverse events (AEs) was 3% (vs. <1% for placebo) and 4% during long-term treatment with valbenazine (up to 48 weeks).

Solubility in water = type: physicochemical
Description: INGREZZA contains valbenazine, present as valbenazine ditosylate salt, with the chemical name, L-Valine, (2R,3R,11bR)-1,3,4,6,7,11b-hexahydro-9,10-dimethoxy-3-(2-methylpropyl)-2H-benzo[a]quinolizin-2-yl ester, 4-methylbenzenesulfonate (1:2). […] Its molecular formula is C38H54N2O10S2, and its molecular weight is 762.97/mol (ditosylate salt) with the following structure: […]

Row | solubility in water (Solubility in water) | SMILES | serious Parkinson-like AEs ([1]; NBI clinical studies in tardive dyskinesia patients) | incidence of Parkinson-like adverse events (AEs) ([1]; Phase 2 and 3 controlled studies, adults with tardive dyskinesia, treatment up to 6 weeks, placebo <1%) [%] | incidence of Parkinson-like adverse events (AEs) during long-term treatment ([1]; long-term treatment up to 48 weeks) [%]
1 |  | COc1cc2c(cc1OC)[C@H]1C[C@@H](OC(=O)[C@@H](N)C(C)C)[C@H](CC(C)C)CN1CC2 [valbenazine, (S)-2-amino-3-methyl-butyric acid (2R, 3R,11bR)-3-isobutyl-9,10-dimethoxy-1,3,4,6,7,11b-hexahydro-2H-pyrido[2,1-a]isoquinolin-2-yl ester] | No serious Parkinson-like AEs were reported | 3 | 4
2 | slightly soluble | COc1cc2c(cc1OC)[C@H]1C[C@@H](OC(=O)[C@@H](N)C(C)C)[C@H](CC(C)C)CN1CC2 [Valbenazine ditosylate, L-Valine, (2R,3R,11bR)-1,3,4,6,7,11b-hexahydro-9,10-dimethoxy-3-(2-methylpropyl)-2H-benzo[a]quinolizin-2-yl ester, 4-methylbenzenesulfonate (1:2)] |  |  | 
